ChEMBL document CHEMBL1126674, “S-adenosylmethionine decarboxylase inhibitors: new aryl and heteroaryl analogues of methylglyoxal bis(guanylhydrazone)” (J Med Chem, 1993)
The source made the active and inactive calls. The calls are words filed in the database; no cut-off is given here.

Key:
[1] = target: T1, S-adenosylmethionine decarboxylase proenzyme (Rattus norvegicus, UniProt P17708); experiment: Inhibitory concentration of compound against S-Adenosyl-methionine decarboxylase (SAMDC) from rat liver
T1 sequence (P17708 whole entry): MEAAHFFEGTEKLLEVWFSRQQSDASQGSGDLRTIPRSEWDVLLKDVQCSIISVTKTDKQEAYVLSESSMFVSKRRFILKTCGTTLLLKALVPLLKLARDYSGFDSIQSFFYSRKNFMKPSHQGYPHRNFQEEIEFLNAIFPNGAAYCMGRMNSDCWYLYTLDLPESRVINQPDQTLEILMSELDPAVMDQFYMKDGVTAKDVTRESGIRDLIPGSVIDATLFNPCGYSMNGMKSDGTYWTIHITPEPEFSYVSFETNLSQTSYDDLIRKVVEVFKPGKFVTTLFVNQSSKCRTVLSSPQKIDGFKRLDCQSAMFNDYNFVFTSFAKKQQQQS

[2] = target: T2, Diamine oxidase [copper-containing] (Rattus norvegicus, UniProt P36633); experiment: In vitro inhibition of Diamine oxidase (DAO) from rat small intestine.; format: tissue-based
T2 sequence (P36633 whole entry): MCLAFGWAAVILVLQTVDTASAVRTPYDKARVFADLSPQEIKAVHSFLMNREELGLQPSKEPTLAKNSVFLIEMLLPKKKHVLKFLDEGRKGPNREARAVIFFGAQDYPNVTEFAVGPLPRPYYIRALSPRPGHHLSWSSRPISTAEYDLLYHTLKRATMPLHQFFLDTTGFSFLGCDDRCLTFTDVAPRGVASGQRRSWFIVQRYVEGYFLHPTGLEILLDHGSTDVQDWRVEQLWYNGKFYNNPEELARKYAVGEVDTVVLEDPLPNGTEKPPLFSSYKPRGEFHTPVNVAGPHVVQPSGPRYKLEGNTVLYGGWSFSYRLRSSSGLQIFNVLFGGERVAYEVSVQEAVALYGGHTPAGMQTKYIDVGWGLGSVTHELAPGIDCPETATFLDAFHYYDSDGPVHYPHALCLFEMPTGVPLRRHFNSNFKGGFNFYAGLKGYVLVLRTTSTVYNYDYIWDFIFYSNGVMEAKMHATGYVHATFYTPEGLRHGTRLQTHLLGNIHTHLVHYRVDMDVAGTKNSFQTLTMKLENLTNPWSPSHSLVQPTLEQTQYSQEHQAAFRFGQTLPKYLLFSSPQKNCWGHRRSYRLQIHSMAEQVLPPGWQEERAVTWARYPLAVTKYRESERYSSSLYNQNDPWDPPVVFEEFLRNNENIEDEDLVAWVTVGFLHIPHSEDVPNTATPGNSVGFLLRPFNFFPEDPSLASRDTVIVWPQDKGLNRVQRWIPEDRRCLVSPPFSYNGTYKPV

[3] = target: T3, Ornithine decarboxylase (Rattus norvegicus) (UniProt P09057); experiment: Evaluated for inhibition of rat liver ornithine decarboxylase (ODC) at concentrations of 50 uM; No inhibition
T3 sequence (whole entry): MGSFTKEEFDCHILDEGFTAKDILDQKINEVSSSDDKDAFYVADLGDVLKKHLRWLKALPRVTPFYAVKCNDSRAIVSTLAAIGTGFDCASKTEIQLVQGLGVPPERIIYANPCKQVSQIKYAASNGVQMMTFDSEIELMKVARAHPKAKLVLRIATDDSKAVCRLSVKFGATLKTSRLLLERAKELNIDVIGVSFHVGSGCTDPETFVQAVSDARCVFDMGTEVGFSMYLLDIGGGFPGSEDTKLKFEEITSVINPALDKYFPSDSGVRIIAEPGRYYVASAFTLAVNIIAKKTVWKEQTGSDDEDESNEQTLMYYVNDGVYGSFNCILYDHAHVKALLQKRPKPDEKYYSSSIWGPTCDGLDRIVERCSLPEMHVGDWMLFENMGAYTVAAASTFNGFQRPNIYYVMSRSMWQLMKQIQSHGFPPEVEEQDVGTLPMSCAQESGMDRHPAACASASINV

T-24 = experiment: Antiproliferative activity against human T24 bladder carcinoma cells; format: functional, cell-based

SMILES	IC50 [1] [µM]	IC50 [2] [µM]	inhibition [3]	IC50 (T-24) [µM]
N=C(NN)N/N=C/c1cccc(C(=N)N)n1	0.67	1.66	inactive	83.6
N=C(N)N/N=C/c1ccnc(C(=N)N)n1	0.53	8.05	inactive	> 168
CC(/C=N/NC(=N)N)=N\NC(=N)N [MITOGUAZONE]		1.5	inactive	1.1
N=C(N)N/N=C/c1nccc(C(=N)N)n1	11	3.4	inactive	> 126
CC/C(=N\N=C(N)N)c1cccc(C(=N)N)c1	0.088	15	inactive	> 152
N=C(N)c1cccc(-c2cccc(C(=N)N)n2)n1	0.006	240	inactive	1.1
N=C(NO)N/N=C/c1cccc(C(=N)N)c1	0.092	20	inactive	14.1
N=C(N)c1cc(-c2ccnc(C(=N)N)c2)ccn1	0.18	12.9	inactive	> 151
N=C(N)c1ccnc(-c2cc(C(=N)N)ccn2)c1	3.1		inactive	> 143
N=C(N)N/N=C/c1cccc(C(=N)NO)n1	25	> 100	inactive	> 119
N=C(NO)N/N=C/c1cccc(C(=N)N)n1	0.24	7.5	inactive	32.9

Further lines, with some results ahead:

IC50 [1] [µM]	IC50 [2] [µM]	inhibition [3]	SMILES	IC50 (T-24) [µM]
0.084	19	inactive	N=C(NN)c1cccc(/C=N/N=C(N)N)n1	60.5
0.16	2.8	inactive	CCCCNC(=N)N/N=C/c1cccc(C(=N)N)c1	> 26.8
0.6		inactive	N=C(N)c1cccc(-c2cccc(C(=N)N)c2)c1	> 160
0.036	5.6	inactive	N=C(N)N/N=C/c1cccc(C(=N)N)c1	9.1
20	> 100	inactive	N=C(N)N/N=C/c1cccc(C(N)=O)c1	> 184
0.066	2.7	inactive	C/C(=N\N=C(N)N)c1cccc(C(=N)N)c1	118
> 50	5	inactive	CCCCNC(=N)c1cccc(/C=N/N=C(N)N)c1	> 28.5
0.006	10	inactive	N=C(N)c1cccc(-c2ccnc(C(=N)N)n2)c1	68.2
0.12	0.76	inactive	N=C(N/N=C/c1cccc(C(=N)N)n1)N/N=C/c1cccc(C(=N)N)n1	49.8
0.33	3.2	inactive	N=C(N)N/N=C/c1ccnc(C(=N)N)c1	> 180
0.21	0.87	inactive	N=C(NN)N/N=C/c1cccc(C(=N)N)c1	25
0.09	0.87	inactive	N=C(N)N/N=C/c1cccc(C(=N)N)n1	10.1
0.061	0.83	inactive	N=C(N)c1cccc(/C=N/N=C(\N)N/N=C/c2cccc(C(=N)N)c2)c1	> 101
